Source: the NIST ThermoML archive (doi:10.1016/j.jct.2004.02.001)
Several values for one entry are separate records, joined by “and”; a condition that tells them apart may be missing. Identical values can stand only once.

Assays:
[1] = Molar enthalpy of transition or fusion; conditions: DSC
[2] = for vapor or sublimation pressure: Calculated from knudsen effusion weight loss; for Triple point temperature: DTA

CCCCc1ccc(C(=O)O)cc1 [4-butylbenzoic acid]
Conditions	Molar enthalpy of transition or fusion, Crystal 1 [kcal/mol]	Molar enthalpy of transition or fusion, Crystal 2 [kcal/mol]	Molar enthalpy of transition or fusion, Nematic liquid crystal [kcal/mol]	Triple point temperature, Crystal 1 [K]	Triple point temperature, Crystal 2 [K]	Triple point temperature, Nematic liquid crystal [K]
[1]	2.77	1.12	0.182	–	–	–
[2]	–	–	–	374.6	309.64	387.98

[2], Crystal 1
Conditions	vapor or sublimation pressure
333.16 K	0.000164 kPa and 0.000162 kPa
335.16 K	0.000211 kPa and 0.000212 kPa
337.14 K	0.000263 kPa and 0.000262 kPa and 0.000261 kPa
339.17 K	0.000323 kPa and 0.000328 kPa and 0.00033 kPa
341.17 K	0.000422 kPa and 0.00042 kPa and 0.000408 kPa
343.16 K	0.00052 kPa and 0.000522 kPa
345.15 K	0.000645 kPa and 0.000629 kPa and 0.000622 kPa
347.13 K	0.000804 kPa and 0.000786 kPa and 0.00078 kPa
349.15 K	0.000994 kPa and 0.000968 kPa and 0.000978 kPa

CCc1ccc(C(=O)O)cc1 [4-ethylbenzoic acid]
Crystal
Conditions	Molar enthalpy of transition or fusion [kcal/mol]	Triple point temperature [K]
[1]	3.06	–
[2]	–	385.2

[2], Crystal
Conditions	vapor or sublimation pressure
321.17 K	0.000214 kPa and 0.000211 kPa
323.16 K	0.000272 kPa and 0.000265 kPa and 0.000263 kPa
325.22 K	0.000347 kPa and 0.000335 kPa
327.17 K	0.000419 kPa and 0.000418 kPa and 0.000436 kPa
329.34 K	0.00055 kPa and 0.000542 kPa and 0.000527 kPa
331.2 K	0.000666 kPa and 0.000651 kPa and 0.000637 kPa
333.14 K	0.000826 kPa and 0.000818 kPa and 0.000803 kPa
335.25 K	0.00103 kPa and 0.00101 kPa and 0.001 kPa

CCCCCCCc1ccc(C(=O)O)cc1 [4-heptylbenzoic acid]
Conditions	Molar enthalpy of transition or fusion, Crystal 1 [kcal/mol]	Molar enthalpy of transition or fusion, Crystal 2 [kcal/mol]	Molar enthalpy of transition or fusion, Nematic liquid crystal [kcal/mol]	Triple point temperature, Crystal 1 [K]	Triple point temperature, Crystal 2 [K]	Triple point temperature, Nematic liquid crystal [K]
[1]	3.42	1.77	0.239	–	–	–
[2]	–	–	–	374.52	320.17	393.11

[2], Crystal 1
Conditions	vapor or sublimation pressure
353.16 K	0.000119 kPa and 0.000121 kPa and 0.000116 kPa
355.19 K	0.000149 kPa and 0.000151 kPa
357.19 K	0.000191 kPa and 0.000193 kPa and 0.000189 kPa
359.18 K	0.000239 kPa and 0.00024 kPa
361.17 K	0.000312 kPa and 0.0003 kPa and 0.000304 kPa
363.2 K	0.000392 kPa and 0.000381 kPa
365.18 K	0.000484 kPa and 0.000482 kPa and 0.000475 kPa
367.14 K	0.000608 kPa and 0.000602 kPa and 0.000595 kPa
369.2 K	0.000771 kPa and 0.000764 kPa and 0.000751 kPa

CCCCCCc1ccc(C(=O)O)cc1 [4-hexylbenzoic acid]
Conditions	Molar enthalpy of transition or fusion, Crystal 1 [kcal/mol]	Molar enthalpy of transition or fusion, Crystal 3 [kcal/mol]	Triple point temperature, Crystal 1 [K]	Triple point temperature, Nematic liquid crystal [K]
[1]	0.227	3.08	–	–
[2]	–	–	370.64	385.87

[2], Crystal 1
Conditions	vapor or sublimation pressure
347.08 K	0.00015 kPa and 0.000151 kPa and 0.000146 kPa
349.19 K	0.000193 kPa and 0.000191 kPa and 0.000189 kPa
351.19 K	0.000245 kPa and 0.000243 kPa and 0.000232 kPa
353.14 K	0.000298 kPa and 0.000293 kPa and 0.000304 kPa
355.25 K	0.000391 kPa and 0.000388 kPa and 0.000381 kPa
357.16 K	0.000485 kPa and 0.00047 kPa and 0.000468 kPa
359.27 K	0.000619 kPa and 0.000614 kPa and 0.000605 kPa
361.35 K	0.000768 kPa and 0.000764 kPa and 0.000736 kPa
363.14 K	0.000951 kPa and 0.000946 kPa and 0.000919 kPa

Cc1ccc(C(=O)O)cc1 [4-methylbenzoic acid]
Crystal
Conditions	Molar enthalpy of transition or fusion [kcal/mol]	Triple point temperature [K]
[1]	5.37	–
[2]	–	452.34

[2], Crystal
Conditions	vapor or sublimation pressure
319.68 K	0.000137 kPa and 0.000133 kPa
322.14 K	0.000182 kPa and 0.000179 kPa and 0.000174 kPa
324.62 K	0.000235 kPa and 0.00023 kPa
327.08 K	0.000309 kPa and 0.000307 kPa and 0.000312 kPa
329.73 K	0.000421 kPa and 0.000415 kPa and 0.000408 kPa
332.11 K	0.000536 kPa and 0.000529 kPa and 0.000515 kPa
334.63 K	0.00071 kPa and 0.000689 kPa and 0.000685 kPa
337.33 K	0.00092 kPa and 0.000891 kPa

CCCCCCCCc1ccc(C(=O)O)cc1 [4-octylbenzoic acid]
Conditions	Molar enthalpy of transition or fusion, Crystal 1 [kcal/mol]	Molar enthalpy of transition or fusion, Crystal 2 [kcal/mol]	Molar enthalpy of transition or fusion, Crystal 3 [kcal/mol]	Molar enthalpy of transition or fusion, Nematic liquid crystal [kcal/mol]	Triple point temperature, Crystal 1 [K]	Triple point temperature, Crystal 2 [K]	Triple point temperature, Crystal 3 [K]	Triple point temperature, Nematic liquid crystal [K]
[1]	3.42	0.112	1.29	0.287	–	–	–	–
[2]	–	–	–	–	373.25	366.56	305.46	385.54

[2]
Conditions	vapor or sublimation pressure
356.67 K, Crystal 2	8.5e-05 kPa and 8.6e-05 kPa
358.22 K, Crystal 2	0.000102 kPa and 0.000103 kPa
359.66 K, Crystal 2	0.000127 kPa and 0.000126 kPa
361.16 K, Crystal 2	0.00015 kPa and 0.000148 kPa
362.71 K, Crystal 2	0.000182 kPa and 0.000181 kPa
364.25 K, Crystal 2	0.000213 kPa and 0.000211 kPa
365.68 K, Crystal 2	0.000255 kPa and 0.000253 kPa
367.46 K, Crystal 1	0.000302 kPa and 0.000305 kPa
368.85 K, Crystal 1	0.000356 kPa and 0.000355 kPa
370.35 K, Crystal 1	0.000426 kPa and 0.000424 kPa
371.86 K, Crystal 1	0.000504 kPa and 0.000502 kPa

CCCCCc1ccc(C(=O)O)cc1 [4-pentylbenzoic acid]
Conditions	Molar enthalpy of transition or fusion, [1] [kcal/mol]	Triple point temperature, [2] [K]
Crystal 1	2.72	362.45
Nematic liquid crystal	0.263	399.3

[2], Crystal 1
Conditions	vapor or sublimation pressure
341.16 K	0.000174 kPa and 0.000177 kPa and 0.000169 kPa
343.16 K	0.000223 kPa and 0.000214 kPa
345.16 K	0.000279 kPa and 0.000271 kPa
347.18 K	0.000358 kPa and 0.000355 kPa and 0.000345 kPa
349.18 K	0.000454 kPa and 0.000455 kPa and 0.000439 kPa
351.17 K	0.000553 kPa and 0.000544 kPa and 0.000533 kPa
353.16 K	0.000694 kPa and 0.000692 kPa and 0.000682 kPa
355.16 K	0.000852 kPa and 0.000854 kPa and 0.000828 kPa
357.16 K	0.00109 kPa and 0.00106 kPa

CCCc1ccc(C(=O)O)cc1 [4-propylbenzoic acid]
Conditions	Molar enthalpy of transition or fusion, [1] [kcal/mol]	Triple point temperature, [2] [K]
Crystal 1	4.7	415.41
Crystal 2	0.81	298.48

[2], Crystal 1
Conditions	vapor or sublimation pressure
331.16 K	0.000166 kPa and 0.000162 kPa and 0.000159 kPa
333.14 K	0.000207 kPa
335.17 K	0.000259 kPa and 0.000252 kPa and 0.000246 kPa
337.17 K	0.000321 kPa and 0.000318 kPa
339.15 K	0.000397 kPa
341.16 K	0.000501 kPa and 0.000485 kPa
343.16 K	0.00062 kPa
345.14 K	0.000772 kPa and 0.000774 kPa and 0.000768 kPa
347.16 K	0.000968 kPa and 0.000944 kPa
